We go through 2 compounds from US4757064A, “Pharmacologically active bicyclic lactams” (Bayer Aktiengesellschaft, priority 1986, dated 1988).

The structures appear in SMILES notation.

For test [1] the following is noted: animal tests; isolated from Clausena Pentaphylla (Roxb.); cited from earlier work.
The subject of test [2] is retrograde amnesia (rat) under hypoxic conditions. In words: Retrograde amnesia under hypoxic conditions (passive avoidance, dark compartment, foot shock). The class given is in vivo, Male rats. The conditions noted are these: 100 mg/kg p.o.; 3.8% oxygen and 96.2% nitrogen; retest after 24 hours; groups of 15. From the text:
Influence of the compound (I, R=H) on retrograde amnesia (rat) under hypoxic conditions.
The apparatus (39 cm long, 21 cm high, and 21 cm wide) consists of two compartments, one made of translucent plastic (29 cm long) and the other one painted black (10 cm long). It has a bottom of spaced metal grids which are connected to a stimulating device delivering 1.6 mA for 20 s.
Both compartments are connected via a door which can be closed.
Male rats (100-120 g body weight) will be placed individually in the large compartment and allowed to explore both compartments for 3 min.
Thereafter, the animals are placed in the small (dark) compartment, the connecting door is closed and the foot shock is delivered. After that the animals are put in an air-tight cage which is perfused by a gas mixture containing 3.8% oxygen and 96.2% nitrogen.
24 hours later the rats are placed again in the bright compartment. The observation time is 3 min.
One experiment is performed in three groups of 15 animals each:
Group A: control group, not exposed to hypoxia
Group B: control group, receiving hypoxia after first training
Group C: treated animals, receiving hypoxia after first training
Evaluation: the times the animals need to enter the dark compartment are measured in seconds. […]
The time difference between the control group B and the treated group C is calculated in percent (C-B=X%). […]

The next test concerns CCl4 intoxicated mice. Briefly: Hepatoprotective action in CCl4 intoxicated mice (SGPT). The class given is in vivo, Male Kunming strain mice. Here is the method:
Male Kunming strain mice weighing 18-22 grams were used throughout the experiments. The compounds to be tested were suspended in 5% Tween 80 and given orally by gavage. The vehicle of 5% Tween 80 solution was administered to control mice via the same route. In in vitro experiments, the compounds were dissolved in dimethylformamide and added directly into the incubation mixture.
Mice were divided into several groups. The control group was administered the vehicle. The other groups were given two doses (250 mg/kg) of compound (I, R=H), at an interval of 8 h, respectively. 10 ml/kg of 0.1% CCl4 in vegetable oil was injected ip 24 h after the second administration of the compound. The mice were fasted for 16 h and sacrificed by decapitation. SGPT and liver lipids were determined. A piece of liver was processed into sections for pathological observation.

As for `C=CC(C)(C)c1cc2cc3c(cc2oc1=O)OC1(C)CCC(C(C)(C)O)OC1C3` (stereo not shown) [Clausmarins A], the “spasmolytic activity (in words)” value in test [1] is “showed spasmolytic activity”.

Turning to `CN1C=Cc2ccccc2C(c2ccccc2)C(O)C1=O` (stereo not shown) [Compound (I, R = H)], the “X, antiamnestic effect (C-B, with A-B=100%)” value in test [2] is 34%. The “SGPT, X ± SE” value in the test on CCl4 intoxicated mice (250 mg/kg × 2, 8 h interval, oral by gavage, 10 ml/kg of 0.1% CCl4 ip 24 h after second dose, 9 per group, control 2270 ± 284, P <0.01) was found to be 617 ± 166 unit %. Moreover, the “effect on elevated SGPT (in words)” value in the test on CCl4 intoxicated mice (mice intoxicated with CCl4) was “significantly decreased the elevated SGPT”.
